Test results: US10208007B2, “Use of strigolactones and strigolactone analogs for treating proliferative conditions” (The State of Israel, Ministry of Agriculture & Rural …, priority 2011, dated 2019)
“Also recorded” adds a separate entry of the source.

Tests used:
[1] = test system: A549; assay: XTT viability assay; assay type: cell-based, human; details: A549, 3 days
Description: (§1) Viability was assayed after 3 days (XTT, ATCC). IC50 concentrations are indicated (Table 3 above).

[2] = test system: MDA-MB-436; assay: XTT viability assay; assay type: cell-based, human; details: MDA-MB-436, 3 days
Description: as §1

[3] = test system: MDA-MB-231; assay: XTT viability after timed exposure and strigolactone removal; assay type: cell-based, human; details: 5 and 10 ppm, XTT at 24 hours
Description: As further detailed herein below in the Experimental section, strigolactones and strigolactone analogs inhibit growth through a G2-phase arrest and cause apoptosis at higher concentrations wherein the GR-24 treatment causes an increase in the percentage of MCF-7 and MDA-MB-231 cells in G2-phase. Cells were treated with strigolactone analogs to determine whether or not they alter cell cycle progression in the same way. Dose dependant increases in the percentage of cells in G2 phase were observed. […] After a total of 24 hours, an XTT assay was carried out.

[4] = test system: U20S cells; assay: Strigolactone analog induced gene expression changes; assay type: cell-based, human; details: 5 ppm
Description: To further elucidate the transcriptional program by which strigolactone analogs may affect growth and survival of cancer cells, U20S cells were treated with ST-362 or MEB-55 (5 ppm) for either 6 or 24 hours to permit early and late gene expression changes to be distinguished. U20S cells were selected based on their enhanced sensitivity to strigolactone treatment (see FIG. 7). […] Up-regulation of cytokines (CCL3L3, GDF15) and growth factors (PGF), and down-regulation of TGFBR11 was also noted. Apoptosis regulating genes were also identified, including DDIT3, BIRC3 and BAG3. DDIT3 encodes a member of the CCAAT/enhancer-binding protein (C/EBP) family of transcription factors and functions as a dominant-negative inhibitor by forming heterodimers with other C/EBP members and preventing their DNA binding activity. DDIT3 is induced by stress, including DNA damage and DDIT3 over-expression can induce cell cycle arrest. After 6 hours, MEB-55 treatment was associated with increased expression of p21cip (CDKN1A), Cyclin F (CCNF), Cyclin A2 (CCNA2) and decreased expression of CDK6, whereas ST-362 induced only a modest down-regulation of Cyclin B1 (CCNB1). Therefore, changes in the expression profile of cell cycle regulators, was not a global hallmark of strigolactone exposure. The only exception was Cyclin G2 (CCNG2) whose expression was elevated in both ST-362 and MEB-55 treatment groups. Cyclin G2 is an unconventional cyclin homolog which is linked to growth inhibition and whose expression is induced by DNA damaging chemotherapeutics.

[5] = test system: HCT116 cells; assay: FACS analysis of phospho-Ser10 Histone-H3; assay type: cell-based, human; details: 2.7% in vehicle controls
Description: Adherent cells were trypsinyzed, washed twice with PBS and filtered through a […] cell sieve. DNA content was assessed by flow cytometry. Cells were seeded at densities of 1.5×10^5 cells (MDA-MB-231, MDA-MB-436), or 4×10^5 cells (MCF-7 and MCF10A), or 2×10^5 cells (SW480, HT-29), or 5×10^5 cells (HCT116), per well in DMEM with 10% FBS in 6-well plate culture dishes. […] After 48 hours, cells were washed twice with PBS (pH 7.4), centrifuged at 360 g for 10 minutes at 4° C., and fixed in chilled ethanol (70%; v/v in PBS) with gentle vortex mixing. To determine their DNA contents, the cells were stained with 40 μg/ml propidium iodide (hereinafter PI) and analyzed using a FACSCalibur flow cytometer and CellQuest analysis software (Becton Dickinson, San Jose, Calif.). Where phosphoHistone-H3 staining was carried out, cells were incubated with polyclonal antibody against phosphoHistone H3 and then with secondary Goat anti-rabbit IgG-conjugated to FITC prior to PI staining.
Chromosome condensation at mitosis is accompanied by phosphorylation of histone H3. Accordingly, in order to determine if cells were arresting at G2 or M phase, HCT116 cells were analyzed for pS10 Histone H3 following strigolactone analogs exposure. […] To further quantify whether the growth inhibition observed in-vitro following strigolactone treatment was due in part to apoptosis, HCT116 cells were dual stained with Annexin V and PI (Prodidium Iodide). Annexin V staining indicate the inversion of the inner leaflet of the plasma membrane an early event of apoptosis. Late apoptosis is characterized by loss of membrane integrity and cells become permeable to PI. […] Cells were incubated for 48 hours and then co-stained with annexin-V and PI (FIG. 12F). Following treatment with 10 ppm and 15 ppm MEB-55, the percentage of late apoptotic cell increased from 3.6% to 62% and 85% respectively (FIG. 12F, lower panel). […] Dual Annexin V/PI staining analysis was also carried out on two other colon cancer cell lines, (SW480, HT29) following strigolactone treatment. Increased apoptosis was also observed in these lines following MEB-55 treatment in a dose dependent manner (FIG. 12D).

[6] = test system: U20S cells; assay: XTT viability after timed exposure and strigolactone removal; details: Homo sapiens
Description: At each time point the strigolactone analog was removed and the media was replaced with fresh growth media without strigolactone analog. […] In addition, viability of MDA-MB-231 cells was assessed after 24 hours by using an XTT assay (FIG. 9B). […] After 2, 4 or 24 hours the media was removed, cells were washed and media was replaced with growth media minus strigolactone analog.

## CC1=CC(O/C=C2/C(=O)c3c(c4cc(-c5scc6c5OCCO6)ccc4n3C)C2C)OC1=O (stereo not drawn) [ST-362, (2E)-2-[(2,5-dihydro-4-methyl-5-oxofuran-2-yloxy)methylene]-1,2-dihydro-7-(2,3-dihydrothieno[3,4-b][1,4]dioxin-7-yl)-1,4-dimethyl-cyclopenta[b]indole-3-(4H)-one]
[1]
  IC50 at 72 h: 6.7 ppm
[2]
  IC50 at 72 h: 5.9 ppm
[3]; 2 hours exposure
  Cell viability: No significant changes; also recorded: No changes in cell viability
[3]; 4 hours exposure, p<0.01
  Cell viability: significant decrease in viability
[4]; 6 hours
  Fold-Change ABCB1: 3.6 fold
  Fold-Change AHSA1: 2.1 fold
  Fold-Change ALDH1B1: −2.1 fold
  Fold-Change ATF3: 2.2 fold
  Fold-Change BAG3: 4.6 fold
  Fold-Change BIRC3: −2.4 fold
  Fold-Change CCL3L3: 3.7 fold
  Fold-Change CCNB1: −2.1 fold
  Fold-Change CCNG2: 3.6 fold
  Fold-Change CLDN12: 2.3 fold
  Fold-Change CYP24A1: −2.6 fold
  Fold-Change DDIT3: 6.2 fold
  Fold-Change FOXD1: −2.4 fold
  Fold-Change FOXO4: 2.5 fold
  Fold-Change GDF15: 7.6 fold
  Fold-Change GEM: 2.4 fold
  Fold-Change HSPA1A: 7.3 fold
  Fold-Change HSPA1B: 9.2 fold
  Fold-Change HSPA1L: 2.7 fold
  Fold-Change HSPA6: 79.8 fold
  Fold-Change HSPA7: 23.3 fold
  Fold-Change HSPB8: 2.7 fold
  Fold-Change PGF: 6.2 fold
  Fold-Change PPP1R15A: 2.7 fold
  Fold-Change PTGS2: 3.4 fold
  Fold-Change SLC3A2: 3.6 fold
  Fold-Change SLC7A11: 2.2 fold
  Fold-Change SLC31A2: 2.3 fold
  Fold-Change SLC44A2: 2.5 fold
  Fold-Change TGFBR2: −2.0 fold
[4]; 24 hours
  Fold-Change ABCA13: −2.8 fold
  Fold-Change AMPH: −3.5 fold
  Fold-Change BIRC3: 2.6 fold
  Fold-Change CCL20: 6.6 fold
  Fold-Change CCNB1: −2.2 fold
  Fold-Change CCNG2: 2.7 fold
  Fold-Change CTGF: 2.4 fold
  Fold-Change CYR61: 3.6 fold
  Fold-Change DHRS2: −2.5 fold
  Fold-Change DUSP5: 3.9 fold
  Fold-Change E2F2: −3.3 fold
  Fold-Change EGR1: 2.2 fold
  Fold-Change ESM1: 6.9 fold
  Fold-Change GDF15: 4.2 fold
  Fold-Change HSPA5: −2.8 fold
  Fold-Change ITGA2: 3.4 fold
  Fold-Change KIF20A: −4.7 fold
  Fold-Change LAMA1: 3.0 fold
  Fold-Change RN7SK: 16.8 fold
  Fold-Change SCG5: 3.0 fold
  Fold-Change SLC7A11: 3.6 fold
  Fold-Change SNORD3A: 4.1 fold
  Fold-Change SNORD3C: 4.0 fold
  Fold-Change SNORD3D: 4.8 fold
  Fold-Change SPP1: 3.9 fold
  Fold-Change TGFBI: −3.4 fold

## CC1=CC(O/C=C2/C(=O)c3c(c4cc(-c5cccs5)ccc4n3C)C2C)OC1=O (stereo not drawn) [ST-357, (2E)-1,4-dimethyl-2-((4-methyl-5-oxo-2,5-dihydrofuran-2-yloxy)methylene)-7-(thiophen-2-yl)-1,2-dihydrocyclopenta[b]indol-3(4H)-one]
[5]; 5 ppm
  Percentage of cells staining positive for pHistone H3: 0.7%
[5]; 7.5 ppm
  Percentage of cells staining positive for pHistone H3: 0.3%
[6]; 1 h
  viability at 10 ppm: 80%
  viability at 20 ppm: 77%
[6]; 4 h
  viability at 10 ppm: 62%
  viability at 20 ppm: 10%
